Patent publication US8088402B2, “Bone growth compositions and methods” (Neuropro Technologies, Inc., priority 2002, dated 2012)

System: male Sprague Dawley rats
Assay: Manual palpation scoring of spinal fusion strength after decortication in rats
Type: in vivo, rat
Description: Twelve male Sprague Dawley rats, each weighing approximately 500 grams were selected. Each rat underwent anesthesia with Nembutal (50 mg/kg i.p.). Incision over two regions, the thoracic and lumbar, of the spine in each animal were made. Each incision allowed for the exposure of spinous processes and lamina of at east 2 levels per region. Decortication was carried out at each thoracic and lumbar region using a high-speed drill. Over the decorticated levels, nothing, gelmatrix, gelmatrix plus 8 mg lovastatin or gelmatrix plus 16 mg lovastatin were added. 8 mg I.M. of antibiotic Cefazolin™ was subcutaneously administered to each rat.
For purposes of analysis, the rats were divided into three groups. Group A consisting of rats 1-4 was treated with nothing or gelmatrix. Group B consisting of rats 5-8 was treated with gelmatrix and 8 mg of lovastatin. And, group C consisting of rats 9-12 was treated with gelmatrix and 16 mg of lovastatin. The following is a summary of the data:
After en bloc removal, two observers manually palpated the spine of each rat in a blinded fashion. Palpation was made by flexion and extension at the level of the arthrodesis and at the adjacent levels proximally and distally. […] Each motion segment was graded on a qualitative scale (0-3) based on the strength of the fusion. A solid fusion having no motion was given a score of 3. […] No fusion was scored as a 0. […]

Compound: CC[C@H](C)C(=O)O[C@H]1C[C@@H](C)C=C2C=C[C@H](C)[C@H](CC[C@@H]3C[C@@H](O)CC(=O)O3)[C@H]21 [lovastatin]
- rats treated with lovastatin that had a stronger fusion at the treated region than rats not treated (gelmatrix plus 8 mg or 16 mg lovastatin over decorticated thoracic or lumbar levels, blinded manual palpation, scale 0-3): seventy five
- dose dependence of fusion grades (palpation score 0-3) (gelmatrix plus 8 mg vs 16 mg lovastatin, FIG. 11): dose dependent
